pKi: −log10 of the molar value.

In the assay the target is T1, Adenosine A2a receptor (Homo sapiens, UniProt P29274).
T1 construct: expressed in transfected cells; host or cells: CHO cell membranes
The assay is described as follows: Adenosine receptor TR-FRET binding assay, A2a. The conditions noted are these: displacement of 100 nM CA200645, CHO cell membranes. The protocol: All FRET binding experiments were conducted at room temperature in white 384-well plates, in assay binding buffer containing 1× LabMed (Cisbio, France), 100 μg/mL saponin, 1% DMSO and 0.02% pluronic acid. Binding of the fluorescently labelled Adenosine receptor antagonist XAC (CA200645, FRET acceptor) to terbium-labelled A1, A2a, A2b and A3 adenosine receptors (FRET donors) was detected by time-resolved FRET due to the close proximity of the donor and acceptor in a binding event. To investigate the ability of unlabelled test compounds to bind to Adenosine A1, A2a, A2b and A3 receptors, dose response curves were constructed that determined the ability of a range of concentrations to inhibit the binding of 30 nM CA200645 to the A2b receptor and 100 nM CA200645 to the A1, A2a, and A3 receptor.
Serial dilution (1:3 dilutions) of test compounds in neat DMSO and transfer of a 400 nL sample of test compound into the assay plate was carried out using the Mosquito (TTP Labtech, UK). The compound samples were incubated for 2 hours at room temperature with a fixed concentration of CA200645 defined for each receptor (see above) and CHO cell membranes containing the human Adenosine A1 (0.5 μg/well), A2a (0.3 μg/well), A2b (1 μg/well) or A3 (1 μg/well) receptor in 40 μL of assay buffer. Total and non-specific binding of CA200645 was determined in the absence and presence of 10 μM XAC, respectively.
Following 2 hours incubation, the level of CA200645 binding was detected on a Pherastar FSX (BMG Labtech, Germany) using standard TR-FRET settings. The terbium donor was excited with three laser flashes at a wavelength of 337 nm, and donor and acceptor emission was detected at 620 nm and 665 nm wavelengths, respectively. FRET ratios were obtained by multiplying the acceptor/donor ratio value by 10,000. Specific binding was determined by subtracting the non-specific binding FRET ratio from the total binding FRET ratio. Compound IC50 curves were analysed using GraphPad Prism 7.0 (GraphPad, USA) and Ki affinity values were determined from the obtained […] values using the method of Cheng and Prusoff.
Background: TR-FRET usually uses a lanthanide donor and a delayed reading to cut background.

T1 sequence (P29274 whole entry): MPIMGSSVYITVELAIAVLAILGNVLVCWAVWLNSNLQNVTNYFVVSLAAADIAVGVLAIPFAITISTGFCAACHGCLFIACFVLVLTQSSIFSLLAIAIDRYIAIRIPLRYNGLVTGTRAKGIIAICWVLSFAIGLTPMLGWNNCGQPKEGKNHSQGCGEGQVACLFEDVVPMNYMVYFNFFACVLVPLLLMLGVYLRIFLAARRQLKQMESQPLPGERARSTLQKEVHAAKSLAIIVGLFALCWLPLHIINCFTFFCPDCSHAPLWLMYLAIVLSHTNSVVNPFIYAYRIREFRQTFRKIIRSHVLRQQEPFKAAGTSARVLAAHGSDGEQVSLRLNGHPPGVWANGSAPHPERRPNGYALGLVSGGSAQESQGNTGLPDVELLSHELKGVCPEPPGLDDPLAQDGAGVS

By pKi is commonly meant the Ki on a negative log10 scale, so that one unit is a factor of ten. For `C[C@@H](NC(=O)c1cnc(-c2cccc(F)c2)nc1N)c1ccccc1` [Example 5, 4-Amino-2-(3-fluorophenyl)-N-[(1R)-1-phenylethyl]pyrimidine-5-carboxamide], the pKi reads like this: (Table 8, Cheng and Prusoff) 6.48; (Table 9, further testing) 6.48.

With `Nc1nc(-c2cccc(F)c2)ncc1C(=O)NCc1ncccn1` [Example 5.5, 4-Amino-2-(3-fluorophenyl)-N-(pyrimidin-2-ylmethyl)pyrimidine-5-carboxamide], the pKi runs as follows: (Table 8, Cheng and Prusoff) 6.56; (Table 9, further testing) 6.56.

Turning to `COc1ccc(CNC(=O)c2cnc(-c3ccco3)nc2N)cc1` [Example 5.11, 4-Amino-2-(2-furyl)-N-[(4-methoxyphenyl)methyl]pyrimidine-5-carboxamide], the negative-log Ki (pKi) runs as follows: (Table 8, Cheng and Prusoff) 6.31; (Table 9, further testing) 6.31.

As to `Nc1nc(-c2ccco2)ncc1C(=O)NCc1ccc(Cl)cc1Cl` [Example 5.19, 4-Amino-N-[(2,4-dichlorophenyl)methyl]-2-(2-furyl)pyrimidine-5-carboxamide], the negative-log Ki (pKi) runs as follows: (Table 8, Cheng and Prusoff) 7.82; (Table 9, further testing) 7.82.

Regarding `Nc1nc(-c2ccco2)ncc1C(=O)N[C@H]1CCc2ccc(F)cc21` [Example 5.42, 4-Amino-N-[(1S)-6-fluoroindan-1-yl]-2-(2-furyl)pyrimidine-5-carboxamide], the negative-log Ki (pKi) (Table 9, further testing) is 7.28.

For `Nc1nc(-c2ccco2)ncc1C(=O)NCc1ncco1` [Example 5.45, 4-Amino-2-(2-furyl)-N-(oxazol-2-ylmethyl)pyrimidine-5-carboxamide], the pKi (Table 9, further testing) was 6.91.

As to `Nc1nc(-c2ccco2)ncc1C(=O)NC1CCCc2cccnc21` (centres unmarked) [Example 5.49, 4-Amino-2-(2-furyl)-N-(5,6,7,8-tetrahydroquinolin-8-yl)pyrimidine-5-carboxamide], the pKi (Table 9, further testing) was 6.80.

With `Nc1nc(-c2ccco2)ncc1C(=O)NCc1ccccc1C(F)(F)F` [Example 5.55, 4-Amino-2-(2-furyl)-N-[[2-(trifluoromethyl)phenyl]methyl]pyrimidine-5-carboxamide], where the note is “Table 9, further testing”, the negative-log Ki (pKi) is 7.68.

`NC(=O)c1nnc(-c2cccc(F)c2)nc1N` [Example 6, 5-Amino-3-(3-fluorophenyl)-1,2,4-triazine-6-carboxamide]: the pKi runs as follows: (Table 8, Cheng and Prusoff) 6.25; (Table 9, further testing) 6.25.

As for `Cc1cccnc1CNC(=O)c1cnc(-c2ccccc2F)nc1N` [Example 9, 4-Amino-2-(2-fluorophenyl)-N-[(3-methyl-2-pyridyl)methyl]pyrimidine-5-carboxamide], the negative-log Ki (pKi) (Table 8, Cheng and Prusoff) was 6.51; the pKi (Table 9, further testing) was 6.51.

Regarding `Cc1cccnc1CNC(=O)c1cnc(-n2cccn2)nc1N` [Example 15, 4-Amino-N-[(3-methyl-2-pyridyl)methyl]-2-pyrazol-1-yl-pyrimidine-5-carboxamide], the pKi by setting is: (Table 8, Cheng and Prusoff) 6.58; (Table 9, further testing) 6.58.

For `CC(C)NC(=O)c1c(N)nc(-c2cccc(C#N)c2)nc1OCCF` [Example 24, 4-Amino-2-(3-cyanophenyl)-6-(2-fluoroethoxy)-N-isopropyl-pyrimidine-5-carboxamide], the pKi (Table 9, further testing) is 8.48.

For the compound `CCCNC(=O)c1c(N)nc(-c2cccc(C#N)c2)nc1OCCF` [Example 24.1, 4-Amino-2-(3-cyanophenyl)-6-(2-fluoroethoxy)-N-propyl-pyrimidine-5-carboxamide], the pKi (Table 9, further testing) is 8.24.

Consider `CC(C)CNC(=O)c1c(N)nc(-c2cccc(C#N)c2)nc1OCCF` [Example 24.2, 4-Amino-2-(3-cyanophenyl)-6-(2-fluoroethoxy)-N-isobutyl-pyrimidine-5-carboxamide], for which the negative logarithm of the Ki (pKi) (Table 9, further testing) is 8.70.

Consider `CCCCNC(=O)c1c(N)nc(-c2cccc(C#N)c2)nc1OCCF` [Example 24.3, 4-Amino-N-butyl-2-(3-cyanophenyl)-6-(2-fluoroethoxy)pyrimidine-5-carboxamide], for which the pKi (Table 9, further testing) is 9.05.

For `CN(C)CCNC(=O)c1c(N)nc(-c2cccc(C#N)c2)nc1OCCF` [Example 24.5, 4-Amino-2-(3-cyanophenyl)-N-[2-(dimethylamino)ethyl]-6-(2-fluoroethoxy)pyrimidine-5-carboxamide], where the note is “Table 9, further testing”, the pKi is 7.54.

Source of the values: US20200339548A1, “PYRIMIDINE DERIVATIVES AND THEIR USE FOR THE TREATMENT OF CANCER” (Adorx Therapeutics Limited, priority 2017, published 2020).
